In patent US20150352209A1, “NANOFIBER HAVING SELF-HEATING […] BIOLOGICALLY ACTIVE SUBSTANCE RELEASE PROPERTIES, PRODUCTION METHOD FOR SAME, AND NONWOVEN FABRIC HAVING SELF-HEATING […] BIOLOGICALLY ACTIVE SUBSTANCE RELEASE CAPABILITIES” (NATIONAL INSTITUTE FOR MATERIALS SCIENCE, priority 2013, published 2015):

Test system: COLO679 cell, which is a human melanoma cell line
Assay: Cancer cell killing test (cell proliferation index)
Type: cell-based
Conditions: COLO679 cells; anticancer drug added instead of application of alternating magnetic field

`COc1cccc2c1C(=O)c1c(O)c3c(c(O)c1C2=O)C[C@@](O)(C(=O)CO)C[C@@H]3O[C@H]1C[C@H](N)[C@H](O)[C@H](C)O1` [free anticancer drug, doxorubicin] was tested. Which “change of cell proliferation index (CPI)” value did it give?
Its value is “the decrease amount of the CPI was smaller than in the case in which the sample in Example 1 was used”.
